# Laboratory results reported in patent publication US8758802B2, “Methods of inhibiting cataracts and presbyopia” (University of Massachusetts, priority 2009, dated 2014).
# Entries after “also recorded” stand apart in the source; their conditions may differ.
# System: βL-crystallin
# Assay: Dynamic light scattering of βL-crystallin solutions with added agents (aggregate size, hydrodynamic radius)
# Format: biochemical, bovine
# Conditions: for Effect on βL-crystallin aggregate size / de-clumping: SDS 0.1 mg/mL (below CMC), 0.2 mg/mL βL-crystallin in water, sulfate
# Method: βL-crystallin (C5163 Sigma-Aldrich) and α-crystallin (C4163 Sigma-Aldrich) from a bovine eye lens were stored in a biological freezer. The four stock solutions prepared for these experiments were 2 mg/mL βL-crystallin in water, 2 mg/mL βL-crystallin in PBS, 2 mg/mL α-crystallin in water, and 0.15M NaCl in water. All water used in these experiments was filtered and deionized. A stock solution of 2 mg/mL βL-crystallin in water was prepared by mixing 10 mg of βL-crystallin with 5 mL water in a decontaminated 20 mL scintillation vial. A similar procedure was followed to prepare 2 mg/mL α-crystallin in water and 2 mg/mL βL-crystallin in PBS.
# A dilution of these stock solutions was used to create 2 mL samples of 0.2 mg/mL βL-crystallin in water, 0.2 mg/mL α-crystallin in water, 0.2 mg/mL βL-crystallin, 0.15M NaCl in water, 0.2 mg/mL βL-crystallin, 0.6 mg/mL α-crystallin in water, and 0.2 mg/mL βL-crystallin in PBS.
# An ALV instrument with an Ar laser (λ=514.5 nm) was used to collect DLS data from 35°-65° in 5° increments and from 70°-90° in 10° increments. An ALV5000 correlator was used to analyze the data. Glass DLS tubes (4 mL) were sonicated in an extremely dilute solution of Micro-90 for 1 hour and then rinsed with filtered deionized water eight times followed by acetone eight times. The concentration of crystallins in the lens is typically very high. However, dilute solutions of the crystallins are required for DLS characterization, as set forth by limitations imposed by the Zimm regime.
# The hydrodynamic radius, Rh, can be determined using the Stokes-Einstein equation,
# As mentioned earlier, α-crystallin acts as a chaperone protein in the lens as it either diminishes or inhibits aggregation. In order to determine the impact of α-crystallin and its chaperone abilities on βL-crystallin, a solution of 0.2 mg/mL βL-crystallin, 0.6 mg/mL α-crystallin in water at 23° C. was prepared for DLS. […] The addition of the chaperone was thereby seen to remove the aggregate.
# In order to determine if the aggregation of the crystallins is electrostatic in nature, dynamic light scattering was accomplished on 0.2 mg/mL βL-crystallin in a 0.15M NaCl water solution, (FIG. 8).
# The effect of SDS, sodium dodecyl sulfate (purchased from Sigma Aldrich) a […] surfactant on βL-crystallin deaggregation was studied as in Example 4. The CMC for SDS is 2.36 mg/ml, so the SDS concentration was maintained below that value.
# [1] = 0.2 mg/mL βL-crystallin, 0.15M NaCl in water
SMILES,"Rh of βL-crystallin aggregate (slow mode) after addition of the salt (0.2 mg/mL βL-crystallin in 0.15M NaCl water solution, without salt 230 nm) [nm]",Effect of salt on fast mode (unaggregated βL-crystallin) [1],Reduction in aggregate Rh upon addition of NaCl [1],Effect on βL-crystallin aggregate size (about 0.15 M NaCl),Effect on βL-crystallin aggregate size / de-clumping (listed as sodium dodecyl sulfate),Effect on βL-crystallin aggregate size / de-clumping
[Cl-].[Na+] [NaCl],120,not significantly affected,two-fold reduction,decreases βL-crystallin aggregate size,–,–
"CCCCCCCCCCCCOS(=O)(=O)[O-].[Na+] [SDS, sodium dodecyl sulfate, reference compound]",–,–,–,–,no effect; also recorded: does not reduce βL-crystallin aggregate sizes,did not stimulate de-clumping
